In patent publication US20180153995A1, “USE OF ANTIMICROBIAL POLYMERS FOR RE-SENSITIZATION OF MICROORGANISMS UPON EMERGENCE OF RESISTANCE TO ANTI-MICROBIAL AGENTS” (Technion Research & Development Foundation Limited, priority 2008, published 2018):
Several values for one entry are separate records, joined by “and”; a condition that tells them apart may be missing. Identical values can stand only once. Like-named read-outs stand apart in the source and are kept apart here.

Legend:
[1] = tested on: E. coli K-12 resistant wild type; type: cell-based, Escherichia coli; conditions: E. coli AG100 (w.t.); the OAK at ⅓ of its MIC (Table 17)
S. aureus 15819 = assay: Antibiotic MIC by microdilution with or without sub-MIC polymer; type: cell-based, Staphylococcus aureus; conditions: S. aureus 15819
S. maltophila 748 = assay: as above; type: cell-based, Stenotrophomonas maltophila
[2] = tested on: E. coli K-12 efflux knockout mutant; type: cell-based, Escherichia coli; conditions: E. coli AG100A (efflux−)
Procedure, shortened: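 Broth microdilution, inocula 10^5 bacteria/ml, 24 h at 37 °C. Growth read as OD620 against calibration standards.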

E. coli 14384 = assay: Antibiotic MIC by microdilution with or without sub-MIC polymer; type: cell-based, Escherichia coli
Procedure, shortened: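 Inoculum 10^5 bacteria/ml; 2-fold serial antibiotic dilutions ± […]; 24 h, 37° C; growth by OD 620 nm vs standards.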

E. coli 16329 = type: cell-based, Escherichia coli
Procedure, shortened: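 Bacterial suspensions (100 μl) were added to 100 μl of culture medium carrying 2-fold serially diluted antibiotic together with a fraction of the polymer's MIC, or to plain medium as control. Plates were incubated 24 hours at 37° C, and proliferation was read at 620 nm against calibration standards. Starting inoculum was 10^5 bacteria per ml.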

E. coli 16327 = assay: microbe, parasite or virus in culture
[3] = +½ MIC (3.12 μM) C12K(KNC12K)3NH2
[4] = +⅓ MIC (2.1 μM) C12K(KNC12K)3NH2

CCN1CCN(C(=O)N[C@@H](C(=O)N[C@@H]2C(=O)N3[C@@H]2SC(C)(C)[C@@H]3C(=O)O)c2ccccc2)C(=O)C1=O [Piperacillin, piperacillin]
256 to 512 µg/mL: Antibiotic MIC (E. coli 14384; E. coli 14384, +½ MIC C12K(NC8K)5NH2) | Antibiotic MIC, None (E. coli 14384; E. coli 14384, antibiotic alone (Table 15)) | Antibiotic MIC (E. coli 14384; E. coli 14384, no polymer (None), Table 9) | Antibiotic MIC (E. coli 14384; E. coli 14384, no polymer (None), Table 14) | Antibiotic MIC in presence of C12K(NC8K)7NH2 (SEQ ID NO: 4), +¼ MIC (E. coli 14384; E. coli 14384, polymer at ¼ of its MIC) | Antibiotic MIC in presence of C12K(NC8K)7NH2 (SEQ ID NO: 4), +⅓ MIC (E. coli 14384; E. coli 14384, polymer at ⅓ of its MIC)
64 to 128 µg/mL: Antibiotic MIC in presence of C12K(NC8K)7NH2 (SEQ ID NO: 4), +½ MIC (E. coli 14384; E. coli 14384, polymer at ½ of its MIC) | Antibiotic MIC in presence of C12K(NC8K)7NH2 (SEQ ID NO: 4), +½ MIC (E. coli 16329; E. coli U-16329, polymer at ½ of its MIC)
128 to 256 µg/mL: Antibiotic MIC (E. coli 16329) | Antibiotic MIC (E. coli 16329; E. coli U-16329, +⅓ MIC C12K(NC8K)5NH2) | Antibiotic MIC in presence of C12K(NC8K)7NH2 (SEQ ID NO: 4), +¼ MIC (E. coli 16329; E. coli U-16329, polymer at ¼ of its MIC) | Antibiotic MIC in presence of C12K(NC8K)7NH2 (SEQ ID NO: 4), +⅓ MIC (E. coli 16329; E. coli U-16329, polymer at ⅓ of its MIC) | Antibiotic MIC in presence of C12K(NC8K)7NH2 (SEQ ID NO: 4), +⅓ MIC (E. coli 16327; E. coli U-16327, polymer at ⅓ of its MIC)
4 µg/mL: Antibiotic MIC (S. aureus 15819; +½ MIC (3.12 μM) C12(5-ene)KKNC12KNH2) | Antibiotic MIC (S. aureus 15819; [3]) | Antibiotic MIC (S. aureus 15819; +½ MIC (3.12 μM) C12KKNC12KNH2) | Antibiotic MIC (S. aureus 15819; [4])
512 µg/mL: Antibiotic MIC (E. coli 16327; E. coli 16327, no polymer (None), Table 10)
8 to 16 µg/mL: Antibiotic MIC (S. aureus 15819; +¼ MIC (1.6 μM) C12(5-ene)KKNC12KNH2) | Antibiotic MIC (S. aureus 15819; +⅓ MIC (2.1 μM) C12KKNC12KNH2)
256 µg/mL and 256 to 512 µg/mL: Antibiotic MIC (E. coli 14384)
1 µg/mL: Antibiotic MIC in presence of the OAK, +⅓ MIC [1]
64 µg/mL: Antibiotic MIC (E. coli 16327; E. coli 16327, +½ MIC (3.12 μM) C12K(KNC12K)2NH2)
<0.13 µg/mL: Antibiotic MIC, None ([2]; antibiotic alone (Table 16)) | Antibiotic MIC, None ([2]; antibiotic alone (Table 17)) | Antibiotic MIC in presence of C12K(NC8K)7NH2 (SEQ ID NO: 4), +¼ MIC ([2]; polymer at ¼ of its MIC (Table 16)) | Antibiotic MIC in presence of C12K(NC8K)7NH2 (SEQ ID NO: 4), +½ MIC ([2]; polymer at ½ of its MIC (Table 16)) | Antibiotic MIC in presence of C12K(NC8K)7NH2 (SEQ ID NO: 4), +⅓ MIC ([2]; polymer at ⅓ of its MIC (Table 16)) | Antibiotic MIC in presence of the OAK, +¼ MIC ([2]; the OAK at ¼ of its MIC (Table 17)) | Antibiotic MIC in presence of the OAK, +½ MIC ([2]; the OAK at ½ of its MIC (Table 17)) | Antibiotic MIC in presence of the OAK, +⅓ MIC ([2]; the OAK at ⅓ of its MIC (Table 17))
8 µg/mL: Antibiotic MIC (S. aureus 15819; +⅓ MIC (2.1 μM) C12(5-ene)KKNC12KNH2)
128 µg/mL: Antibiotic MIC (E. coli 16329; E. coli U-16329, +½ MIC C12K(NC8K)5NH2)
128 µg/mL and 256 µg/mL: Antibiotic MIC (E. coli 16327)
32 µg/mL: Antibiotic MIC (S. aureus 15819; no polymer (None), Table 11) | Antibiotic MIC (S. aureus 15819; no polymer (None), Table 13) | Antibiotic MIC (S. maltophila 748; +¼ MIC (1.6 μM) C12K(KNC12K)3NH2) | Antibiotic MIC (S. maltophila 748; [3]) | Antibiotic MIC (S. maltophila 748; [4]) | Antibiotic MIC (S. maltophila 748; no polymer (None), Table 13)
32 to 64 µg/mL: Antibiotic MIC in presence of C12K(NC8K)7NH2 (SEQ ID NO: 4), +½ MIC (E. coli 16327; E. coli U-16327, polymer at ½ of its MIC)
256 µg/mL: Antibiotic MIC (E. coli 16329; E. coli 16329, no polymer (None), Table 10) | Antibiotic MIC (E. coli 16329; E. coli U-16329, +¼ MIC C12K(NC8K)5NH2) | Antibiotic MIC, None (E. coli 16329; E. coli U-16329, antibiotic alone (Table 15)) | Antibiotic MIC (E. coli 16329; E. coli U-16329, no polymer (None), Table 14) | Antibiotic MIC (E. coli 16327; E. coli 16327, +¼ MIC (1.6 μM) C12K(KNC12K)2NH2) | Antibiotic MIC (E. coli 16327; E. coli 16327, +⅓ MIC (2.1 μM) C12K(KNC12K)2NH2) | Antibiotic MIC (E. coli 16327; E. coli 16327, no polymer (None), Table 9) | Antibiotic MIC (E. coli 16327; E. coli 16327, no polymer (None), Table 12) | Antibiotic MIC, None (E. coli 16327; E. coli U-16327, antibiotic alone (Table 15)) | Antibiotic MIC in presence of C12K(NC8K)7NH2 (SEQ ID NO: 4), +¼ MIC (E. coli 16327; E. coli U-16327, polymer at ¼ of its MIC)
16 µg/mL: Antibiotic MIC (S. aureus 15819; +¼ MIC (1.6 μM) C12KKNC12KNH2) | Antibiotic MIC (S. aureus 15819; no polymer (None), Table 8)
